The target of one assay is T1, Adenosine receptor A3 (Homo sapiens, UniProt P0DMS8).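 Also: radioligand binding assay with AB-MECA serving as the labeled ligand; in other assays of this panel Not Active means under 50% inhibition at 10 µM.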
T1 sequence (P0DMS8 whole entry): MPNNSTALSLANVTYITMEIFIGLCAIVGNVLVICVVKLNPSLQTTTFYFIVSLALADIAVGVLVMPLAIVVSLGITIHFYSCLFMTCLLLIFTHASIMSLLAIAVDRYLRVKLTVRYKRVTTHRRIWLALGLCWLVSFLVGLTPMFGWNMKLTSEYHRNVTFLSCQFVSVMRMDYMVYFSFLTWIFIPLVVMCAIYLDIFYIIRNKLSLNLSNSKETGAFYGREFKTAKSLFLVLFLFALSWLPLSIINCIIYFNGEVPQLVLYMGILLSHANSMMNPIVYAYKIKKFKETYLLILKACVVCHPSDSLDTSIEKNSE
Type of assay: cell membranes, CHO-K1, Membrane. As to conditions: cho-k1.

For assay [1], the target named is Delta-type opioid receptor (Homo sapiens, UniProt P41143). Type of assay: cell membranes, HEK293, Membrane. As to conditions: hek293. Also: in other assays of this panel Not Active means under 50% inhibition at 10 µM.
Assay [2] concerns the target T2, Alpha-1A adrenergic receptor (Rattus norvegicus, UniProt P43140).
T2 sequence (P43140 whole entry): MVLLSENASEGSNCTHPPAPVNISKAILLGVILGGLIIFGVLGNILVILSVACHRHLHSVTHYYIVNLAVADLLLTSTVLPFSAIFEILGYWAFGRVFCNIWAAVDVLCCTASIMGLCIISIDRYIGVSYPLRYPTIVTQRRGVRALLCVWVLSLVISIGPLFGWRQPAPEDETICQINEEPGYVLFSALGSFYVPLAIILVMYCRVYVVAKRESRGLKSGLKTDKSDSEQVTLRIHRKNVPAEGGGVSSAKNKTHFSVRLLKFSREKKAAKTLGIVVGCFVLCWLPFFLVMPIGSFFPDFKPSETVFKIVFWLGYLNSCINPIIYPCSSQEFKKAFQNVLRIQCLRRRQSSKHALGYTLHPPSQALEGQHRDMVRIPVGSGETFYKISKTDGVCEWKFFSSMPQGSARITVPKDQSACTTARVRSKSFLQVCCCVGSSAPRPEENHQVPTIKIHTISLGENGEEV
The assay can be described thus: DRUGMATRIX: Alpha-1A adrenergic receptor radioligand binding (ligand: prazosin). Type of assay: cell membranes, Wistar, Submaxillary gland, Membrane. As to conditions: Not Active = under 50% inhibition at 10 µM.

Assay [3] has as its target Protein phosphatase 3 catalytic subunit alpha (Homo sapiens, UniProt Q08209). Details: species or system Escherichia coli.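 Also: inhibition of calcineurin (PP2B) enzyme activity, measured with DiFMUP as the substrate; in other assays of this panel Not Active means under 50% inhibition at 10 µM.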
Assay [4] deals with T3, Receptor-type tyrosine-protein phosphatase C (Homo sapiens, UniProt P08575).
T3 sequence (P08575 whole entry): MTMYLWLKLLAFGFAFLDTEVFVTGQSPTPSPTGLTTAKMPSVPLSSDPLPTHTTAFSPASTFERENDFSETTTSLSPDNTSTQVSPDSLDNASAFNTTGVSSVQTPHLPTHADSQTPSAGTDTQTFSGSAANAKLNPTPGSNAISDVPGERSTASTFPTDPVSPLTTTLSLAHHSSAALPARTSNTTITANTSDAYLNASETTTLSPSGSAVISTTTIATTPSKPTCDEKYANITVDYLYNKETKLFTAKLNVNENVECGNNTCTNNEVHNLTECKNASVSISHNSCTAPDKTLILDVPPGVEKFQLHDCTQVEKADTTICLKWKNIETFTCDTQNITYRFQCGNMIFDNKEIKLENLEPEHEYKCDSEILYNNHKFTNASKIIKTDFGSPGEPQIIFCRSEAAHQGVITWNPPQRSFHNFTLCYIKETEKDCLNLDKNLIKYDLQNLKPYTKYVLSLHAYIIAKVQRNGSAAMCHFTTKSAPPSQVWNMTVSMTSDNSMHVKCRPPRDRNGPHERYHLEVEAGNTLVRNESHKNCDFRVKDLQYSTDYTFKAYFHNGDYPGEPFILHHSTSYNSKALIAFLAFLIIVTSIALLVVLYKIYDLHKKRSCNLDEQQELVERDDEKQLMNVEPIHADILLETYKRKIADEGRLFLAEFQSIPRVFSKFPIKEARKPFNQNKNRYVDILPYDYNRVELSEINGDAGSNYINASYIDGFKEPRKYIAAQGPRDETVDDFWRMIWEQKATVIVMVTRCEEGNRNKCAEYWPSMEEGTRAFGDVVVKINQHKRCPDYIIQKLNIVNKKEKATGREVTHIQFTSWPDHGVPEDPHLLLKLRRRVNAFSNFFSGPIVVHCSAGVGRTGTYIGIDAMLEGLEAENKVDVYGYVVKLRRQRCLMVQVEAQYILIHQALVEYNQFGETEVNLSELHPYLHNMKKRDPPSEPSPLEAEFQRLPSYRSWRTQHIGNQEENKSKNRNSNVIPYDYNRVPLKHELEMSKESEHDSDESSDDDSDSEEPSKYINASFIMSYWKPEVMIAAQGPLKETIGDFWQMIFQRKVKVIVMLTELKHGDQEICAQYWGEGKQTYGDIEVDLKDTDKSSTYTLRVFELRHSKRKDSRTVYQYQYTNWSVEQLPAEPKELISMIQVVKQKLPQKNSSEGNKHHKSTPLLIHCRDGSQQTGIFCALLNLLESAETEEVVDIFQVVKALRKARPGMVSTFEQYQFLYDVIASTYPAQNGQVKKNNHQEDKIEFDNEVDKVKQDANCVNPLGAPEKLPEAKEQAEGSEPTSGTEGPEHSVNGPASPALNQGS
Details: species or system Escherichia coli.

Assay [5] is described as follows: DRUGMATRIX: ATPase, Na+/K+ enzyme inhibition (substrate: ATP). It counts as tissue-based, Sus scrofa, Heart. As to conditions: Not Active = under 50% inhibition at 10 µM.

Sequence of Delta-type opioid receptor (P41143 whole entry): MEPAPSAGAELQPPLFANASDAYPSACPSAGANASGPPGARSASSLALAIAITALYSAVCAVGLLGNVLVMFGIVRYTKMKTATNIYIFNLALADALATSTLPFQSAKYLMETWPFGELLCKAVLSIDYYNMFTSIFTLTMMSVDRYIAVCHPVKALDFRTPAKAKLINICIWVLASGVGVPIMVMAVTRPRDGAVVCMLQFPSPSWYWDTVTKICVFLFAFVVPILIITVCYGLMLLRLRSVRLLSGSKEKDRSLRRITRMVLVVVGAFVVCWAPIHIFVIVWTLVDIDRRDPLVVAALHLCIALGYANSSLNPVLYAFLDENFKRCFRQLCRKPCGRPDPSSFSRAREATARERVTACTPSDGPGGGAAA

Take `O=C(O)CCNC(=O)c1ccc(/N=N/c2ccc(O)c(C(=O)O)c2)cc1` [BALSALAZIDE]: the IC50 result (against Adenosine receptor A3; in assay [1]; in assay [2]; in assay [3]; in assay [4]; in assay [5]) was “Not Active” each time. Besides, the Ki (in general, a measure of affinity in units of concentration, obtained from inhibition or displacement) in assay [5] is on record as “Not Active”.
`COc1cc(OC)c(C(=O)CCCN2CCCC2)c(OC)c1` [BUFLOMEDIL]: the IC50 entry (against Adenosine receptor A3; in assay [1]; in assay [2]; in assay [3]; in assay [4]; in assay [5]) was “Not Active” in each case. For the same molecule, the Ki entry in assay [5] is recorded as “Not Active”.
On to `Cn1c(=O)c2c(ncn2C)n(C)c1=O` [CAFFEINE], for which the IC50 entry (against Adenosine receptor A3; in assay [1]; in assay [2]; in assay [3]; in assay [4]; in assay [5]) was “Not Active” in each case. Moreover, the Ki entry in assay [5] was “Not Active”.
Consider `ClC(Cl)(Cl)Cl` [CARBON TETRACHLORIDE], for which the IC50 result (on Adenosine receptor A3; in assay [1]; in assay [2]; in assay [3]; in assay [4]; in assay [5]) was “Not Active” throughout. Also, the Ki result in assay [5] is on record as “Not Active”.
Consider `CO/N=C(\C(=O)N[C@@H]1C(=O)N2C(C(=O)O)=C(COC(C)=O)CS[C@H]12)c1csc(N)n1` [CEFOTAXIME], for which the 50% inhibitory concentration (IC50) entry (at Adenosine receptor A3; in assay [1]; in assay [2]; in assay [3]; in assay [4]; in assay [5]) was “Not Active” each time. Further, the Ki result in assay [5] is “Not Active”.
`CNC1=Nc2ccc(Cl)cc2C(c2ccccc2)=[N+]([O-])C1` [CHLORDIAZEPOXIDE]: the IC50 entry (on Adenosine receptor A3; in assay [1]; in assay [2]; in assay [3]; in assay [4]; in assay [5]) was “Not Active” each time. For the same molecule, in assay [5], the Ki result is “Not Active”.
`Cc1cc(O)cc(C)c1Cl` [CHLOROXYLENOL]: the IC50 result (against Adenosine receptor A3; in assay [1]; in assay [2]; in assay [3]; in assay [4]; in assay [5]) was “Not Active” each time. The Ki result in assay [5] is “Not Active”.
For `CCCNC(=O)NS(=O)(=O)c1ccc(Cl)cc1` [CHLORPROPAMIDE], the IC50 result (on Adenosine receptor A3; in assay [1]; in assay [2]; in assay [3]; in assay [4]; in assay [5]) was “Not Active” throughout. In addition, in assay [5], the Ki entry was “Not Active”.
`NS(=O)(=O)c1cc(C2(O)NC(=O)c3ccccc32)ccc1Cl` (configuration not stated) [CHLORTHALIDONE]: the IC50 result (against Adenosine receptor A3; in assay [1]; in assay [2]; in assay [3]; in assay [4]; in assay [5]) was “Not Active” throughout. In assay [5], the Ki entry is listed as “Not Active”.
Consider `O=C(O)CC(O)(CC(=O)O)C(=O)O` [CITRIC ACID], for which the IC50 entry (against Adenosine receptor A3; in assay [1]; in assay [2]; in assay [3]; in assay [4]; in assay [5]) was “Not Active” throughout. The Ki entry in assay [5] is reported as “Not Active”.
As to `CC(C)NCC(O)c1ccccc1Cl` (configuration not stated) [CLORPRENALINE], the IC50 entry (on Adenosine receptor A3; in assay [1]; in assay [2]; in assay [3]; in assay [4]; in assay [5]) was “Not Active” each time. For the same molecule, the Ki entry in assay [5] is “Not Active”.
As for `CN1CCN(C(c2ccccc2)c2ccccc2)CC1` [CYCLIZINE], the IC50 result (against Adenosine receptor A3; in assay [1]; in assay [2]; in assay [3]; in assay [4]; in assay [5]) was “Not Active” each time. For the same molecule, the Ki result in assay [5] is on record as “Not Active”.
Turning to `CN1C[C@@H]2C[C@H]1CN2c1cc2c(cc1F)c(=O)c(C(=O)O)cn2C1CC1` [DANOFLOXACIN], the IC50 entry (against Adenosine receptor A3; in assay [1]; in assay [2]; in assay [3]; in assay [4]; in assay [5]) was “Not Active” in each case. For the same molecule, the Ki result in assay [5] was “Not Active”.
Take `COc1cccc2c1C(=O)c1c(O)c3c(c(O)c1C2=O)C[C@@](O)(C(C)=O)C[C@@H]3O[C@H]1C[C@H](N)[C@H](O)[C@H](C)O1` [DAUNORUBICIN]: the IC50 entry (on Adenosine receptor A3; in assay [1]; in assay [2]; in assay [3]; in assay [4]; in assay [5]) was “Not Active” in each case. Also, the Ki result in assay [5] was “Not Active”.
Regarding `O=C(O)c1cc(-c2ccc(F)cc2F)ccc1O` [DIFLUNISAL], the IC50 entry (at Adenosine receptor A3; in assay [1]; in assay [2]; in assay [3]; in assay [4]; in assay [5]) was “Not Active” throughout. The Ki result in assay [5] is on record as “Not Active”.
As to `C[S+](C)[O-]` [DIMETHYL SULFOXIDE], the IC50 entry (against Adenosine receptor A3; in assay [1]; in assay [2]; in assay [3]; in assay [5]) was “Not Active” in each case. For the same molecule, the Ki result in assay [4] and in assay [5] was “Not Active” each time.
For the molecule `CC1=NN(c2ccccc2)C(=O)C1` [EDARAVONE], the IC50 entry (on Adenosine receptor A3; in assay [1]; in assay [2]; in assay [3]; in assay [4]; in assay [5]) was “Not Active” in each case. Moreover, in assay [5], the Ki result is on record as “Not Active”.
Consider `CC(C)C[C@H]1C(=O)N2CCC[C@H]2[C@]2(O)O[C@](NC(=O)[C@@H]3C=C4c5cccc6[nH]cc(c56)C[C@H]4N(C)C3)(C(C)C)C(=O)N12` [ERGOCRYPTINE], for which the IC50 (usually the concentration that gives 50% inhibition) on Adenosine receptor A3 is “Not Active”; in assay [1] it was “Not Active”; in assay [2] (read-out: IC50), 11 nM; in assay [3], “Not Active”; in assay [4] it was “Not Active”; in assay [5], “Not Active”. Further, the Ki is 4.28 nM in assay [2] (read-out: Ki) and “Not Active” in assay [5].
